ChEMBL document CHEMBL5042535, “Structure-Based Design and Synthesis of N-Substituted 3-Amino-β-Carboline Derivatives as Potent αβ-Tubulin Degradation Agents” (J Med Chem, 2022)
Activity calls are given as the source filed them. No cut-off for these calls is given here.

Experiments:
NCI/ADR-RES = test: Cytotoxicity in human NCI-ADR-RES assessed as inhibition in cell growth measured after 24 hrs by MTT assay; format: functional, cell-based
[1] = Oral bioavailability in rat at 5 mg/kg; format: ADME, organism-based; conditions: in vivo
[2] = Cmax in rat plasma at 5 mg/kg, iv; format: ADME, organism-based; parameters: route intravenous, dose 5 mg/kg
[3] = Clearance in rat at 5 mg/kg, iv; format: ADME, organism-based; conditions: in vivo
[4] = Clearance in rat at 5 mg/kg, po; format: ADME, organism-based; conditions: in vivo
[5] = Half life in rat at 5 mg/kg, po; format: ADME, organism-based; conditions: in vivo
[6] = Volume of distribution at steady state in rat at 5 mg/kg, po; format: ADME, organism-based; conditions: in vivo
HeLa [7] = test: Induction of Beta tubulin degradation in human HeLa cells at upto 10 uM for 16 hrs by immunoblot analysis; format: cell-based; conditions: dose microM <=10, time 16.0 hrs
[8] = Drug resistance index, ratio of IC50 for human A2780S cancer cell to ratio of IC50 for human A2780T cancer cell; format: functional
[9] = Cmax in rat at 5 mg/kg, po; format: ADME, organism-based; parameters: route oral, dose 5 mg/kg; conditions: in vivo
HeLa [10] = test: Antiproliferative activity against human HeLa cells assessed as reduction in cell viability measured after 24 hrs by MTT assay; format: functional, cell-based
[11] = Half life in rat at 5 mg/kg, iv; format: ADME, organism-based; conditions: in vivo
A549/TR = test: Cytotoxicity in human A549T assessed as inhibition in cell growth measured after 24 hrs by MTT assay; format: functional, cell-based
A2780S [12] = test: Induction of apoptosis in human A2780S cells assessed as late apoptotic cells level at 30 nM incubated for 48 hrs by Annexin V-FITC/PI staining based flow cytometry (reference value: 5.2%); format: functional
HUVEC [13] = test: Antimigratory activity against human HUVEC cells assessed as reduction in cell migration at upto 10 nM incubated for 24 hrs by wound healing assay; format: functional; parameters: scale not given: the % may be the effect or the level left; conditions: dose nM <=10
Tubulin (Homo sapiens) = Tubulin (Homo sapiens) (UniProt P68371+Q9H4B7+P0DPH7+P68366+Q13509+Q71U36+P04350+Q3ZCM7+P07437+P68363+Q9BQE3+Q6PEY2+Q13885+Q9BVA1+Q9BUF5); test: Inhibition of tubulin polymerization in human A2780S cells assessed as microtubule network polymerization at 10 to 1000 nM after 24 hrs by immunofluorescence analysis; format: cell-based; conditions: dose 10-1000 nM
MCF7 [14] = test: Antiproliferative activity against human MCF7 cells assessed as reduction in cell viability measured after 24 hrs by MTT assay; format: functional, cell-based; conditions: MCF7, 24 h
[15] = Volume of distribution at steady state in rat at 5 mg/kg, iv; format: ADME, organism-based; conditions: in vivo, read-out: Vdss
A2780S [16] = test: Cytotoxicity in human A2780S assessed as inhibition in cell growth measured after 24 hrs by MTT assay; format: functional, cell-based
HeLa [17] = test: Induction of Alpha/beta tubulin degradation in human HeLa cells measured after 16 hrs by immunoblot analysis; format: cell-based; conditions: dose 0-50 µM
HeLa [18] = test: Induction of Beta tubulin degradation in human HeLa cells pretreated with MG132 at 10 uM for 1 hrs followed by compound addition measured after 16 hrs by Western blot analysis; format: cell-based
A2780S [19] = test: Antiproliferative activity against human A2780S cells assessed as reduction in cell viability measured after 24 hrs by MTT assay; format: functional, cell-based
A2780/Taxol [20] = test: Induction of cell cycle arrest in human A2780T cells assessed as accumulation at G2/M phase at 100 nM measured after 48 hrs by flow cytometry analysis relative to control; format: functional
A2780S [21] = test: Induction of cell cycle arrest in human A2780S cells assessed as accumulation at G2/M phase at 100 nM measured after 48 hrs by flow cytometry analysis relative to control; format: functional
[22] = Drug resistance index, ratio of IC50 for human A549 cancer cell to ratio of IC50 for human A549T cancer cell; format: functional
HeLa [23] = test: Induction of Alpha/beta tubulin degradation in human HeLa cells pretreated with colchicine at 10 uM for 1 hrs followed by compound addition measured after 16 hrs by Western blot analysis; format: cell-based
NCI-H460 = test: Antiproliferative activity against human NCI-H460 cells assessed as reduction in cell viability measured after 24 hrs by MTT assay; format: functional, cell-based; conditions: NCI-H460, 24 h
[24] = Drug resistance index, ratio of IC50 for human MCF7 cancer cell to ratio of IC50 for human NCI-ADR-RES cancer cell; format: functional
HeLa [25] = test: Induction of Alpha/beta tubulin degradation in human HeLa cells pretreated with PYR-41 at 10 uM for 1 hrs followed by compound addition measured after 16 hrs by Western blot analysis; format: cell-based
A2780S [26] = test: Induction of apoptosis in PTX sensitive human A2780S cells at 100 to 300 nM incubated for 48 hrs by Annexin V-FITC/PI staining based flow cytometry method; format: functional, cell-based; conditions: dose 100-300 nM
HUVEC [27] = test: Antimigratory activity against human HUVEC cells assessed as reduction in cell migration at upto 10 nM incubated for 48 hrs by wound healing assay; format: functional; parameters: scale not given: the % may be the effect or the level left; conditions: dose nM <=10
HUVEC [28] = test: Antimigratory activity against human HUVEC cells assessed as reduction in tumor cell migration at upto 5 nM incubated for 24 hrs by wound healing assay relative to control; format: functional; parameters: scale not given: the % may be the effect or the level left; conditions: dose nM <=5
A2780S [29] = test: Induction of cell cycle arrest in human A2780S cells assessed as accumulation at G2/M phase at 300 nM measured after 48 hrs by flow cytometry analysis relative to control; format: functional
A2780S [30] = test: Antitumor activity against human A2780S cells xenografted in mouse assessed as tumor growth inhibition at 40 mg/kg, iv; format: functional; conditions: read-out: TGI
HUVEC [31] = test: Antimigratory activity against human HUVEC cells assessed as reduction in cell migration at upto 5 nM incubated for 48 hrs by wound healing assay relative to control; format: functional; parameters: scale not given: the % may be the effect or the level left; conditions: dose nM <=5
A2780S [32] = test: Antitumor activity against mouse xenografted with human A2780S cell assessed as tumor growth inhibition at 40 mg/kg, po; format: functional; conditions: read-out: TGI
A2780S [33] = test: Antitumor activity against human A2780S cells xenografted in mouse assessed as tumor growth inhibition at 10 mg/kg, iv measured on three times in week; format: functional; conditions: read-out: TGI
K562 = test: Induction of Beta tubulin degradation in human K562 cells at upto 10 uM for 16 hrs by immunoblot analysis; format: cell-based; conditions: dose microM <=10, time 16.0 hrs
HUVEC [34] = test: Antimigratory activity against human HUVEC cells assessed as reduction in metastasis at upto 5 nM incubated for 24 hrs by wound healing assay; format: functional, cell-based; conditions: dose nM <=5, time 24.0 hrs
A2780S [35] = test: Induction of apoptosis in human A2780S cells assessed as late apoptotic cells level at 100 nM incubated for 48 hrs by Annexin V-FITC/PI staining based flow cytometry (reference value: 5.2%); format: functional
[36] = Toxicity in mouse xenografted with human A2780S cells assessed as body weight loss at 40 mg/kg, iv; format: organism-based; conditions: in vivo
A2780/Taxol [37] = test: Cytotoxicity in human A2780T assessed as inhibition in cell growth measured after 24 hrs by MTT assay; format: functional, cell-based
A549 = test: Cytotoxicity in human A549 assessed as inhibition in cell growth measured after 24 hrs by MTT assay; format: functional, cell-based; conditions: A549, 24 h
[38] = Toxicity in mouse xenografted with human A2780S cells assessed as body weight loss at 40 mg/kg, po; format: organism-based; conditions: in vivo
MCF7 [39] = test: Cytotoxicity in human MCF7 assessed as inhibition in cell growth measured after 24 hrs by MTT assay; format: functional, cell-based; conditions: MCF7, 24 h
A2780/Taxol [40] = test: Induction of cell cycle arrest in human A2780T cells assessed as accumulation at G2/M phase at 300 nM measured after 48 hrs by flow cytometry analysis relative to control; format: functional
Raji = test: Antiproliferative activity against human Raji cells assessed as reduction in cell viability measured after 24 hrs by MTT assay; format: functional, cell-based
HUVEC [41] = test: Antimigratory activity against human HUVEC cells assessed as reduction in metastasis at upto 5 nM incubated for 48 hrs by wound healing assay; format: functional, cell-based; conditions: dose nM <=5, time 48.0 hrs
A2780S [42] = test: Induction of apoptosis in human A2780S cells assessed as late apoptotic cells level at 300 nM incubated for 48 hrs by Annexin V-FITC/PI staining based flow cytometry (reference value: 5.2%); format: functional
A2780/Taxol [43] = test: Induction of apoptosis in PTX resistant human A2780T cells at 100 to 300 nM incubated for 48 hrs by Annexin V-FITC/PI staining based flow cytometry method; format: functional, cell-based; conditions: dose 100-300 nM
HeLa [44] = test: Induction of Alpha/beta tubulin degradation in human HeLa cells pretreated with colchicine at 10 uM for 1 hrs by Western blot analysis; format: cell-based
A2780S [45] = test: Antitumor activity against human A2780S cells xenografted in mouse assessed as tumor growth inhibition at 20 mg/kg, iv measured on three times in week; format: functional; conditions: read-out: TGI

- bioavailability [1]: 30.7%
- Cmax [2]: 189 ng/mL
- clearance [3]: 25.3 mL/min/kg
- CL/F [4]: 84.3 mL/min/kg
- half-life [5]: 4.42 h
- Vdss [6]: 35.26 L/kg
- Cmax [9]: 2600 ng/mL
- IC50 (HeLa [10]): 5 nM
- half-life [11]: 3.57 h
- Activity (Tubulin (Homo sapiens)): inactive
- IC50 (MCF7 [14]): 9 nM
- Vd [15]: 8.08 L/kg
- IC50 (A2780S [19]): 8 nM
- IC50 (NCI-H460): 14 nM
- IC50 (Raji): 13 nM
Structure (SMILES): c1cc(CNc2cc3c(cn2)[nH]c2ccccc23)cc(Oc2ccc3c(c2)OCO3)c1
- IC50 (NCI/ADR-RES): 13.5 nM
- Activity (HeLa [7]): Active
- Ratio IC50 [8]: 0.8
- IC50 (A549/TR): 63.8 nM
- Activity (A2780S [12]): 3.7%
- Activity (HUVEC [13]): 20.8%
- IC50 (A2780S [16]): 16.4 nM
- Activity (HeLa [17]): Active
- Activity (HeLa [18]): Active
- Activity (A2780/Taxol [20]): 72.18%
- Activity (A2780S [21]): 55.1%
- Ratio IC50 [22]: 1.1
- Activity (HeLa [23]): Active
- Ratio IC50 [24]: 1.2
- Activity (HeLa [25]): Active
- Activity (A2780S [26]): Active
- Activity (HUVEC [27]): 28.47%
- Activity (HUVEC [28]): 76.21%
- Activity (A2780S [29]): 79.54%
- inhibition in vivo at 40 mg/kg (A2780S [30]): 92.4%
- Activity (HUVEC [31]): 85.07%
- inhibition in vivo at 40 mg/kg (A2780S [32]): 34.9%
- inhibition in vivo at 10 mg/kg (A2780S [33]): 66.1%
- Activity (K562): Active
- Activity (HUVEC [34]): Active
- Activity (A2780S [35]): 25.2%
- Activity [36]: Non-Toxic
- IC50 (A2780/Taxol [37]): 13.1 nM
- IC50 (A549): 60.1 nM
- Activity [38]: Toxic
- IC50 (MCF7 [39]): 11.3 nM
- Activity (A2780/Taxol [40]): 72.89%
- Activity (HUVEC [41]): Active
- Activity (A2780S [42]): 30.6%
- Activity (A2780/Taxol [43]): Active
- Activity (HeLa [44]): Active
- inhibition in vivo at 20 mg/kg (A2780S [45]): 71.5%
